Earlier results on one compound are cited in US9034383B2 (NanoRx, Inc., priority 2010, dated 2015).

One data set concerns rats. The settings on record: exercise-trained rats run to exhaustion on a treadmill; Kim et al. 2003.
For a further data set, the system named is angiogenesis. The settings on record: Thippeswamy 2008.

Consider `CCCCCCCCCCCCCCCCCCCCCCCCCCCCO` [pure octacosanol, octacosanol], for which the ergogenic properties result with rats was “sparing of muscle glycogen stores and increasing the oxidative capacity in the muscle”. Besides, the “neurologic and pulmonary function” value (amyotrophic lateral sclerosis patients, double-blind placebo-controlled crossover, Fallat 1986) is “did not show any benefits”. Further, the “neutral sterol and bile acid concentration in feces” value (humans, Jahreis 2008) is on record as “decreases”. Also, the angiogenesis entry in the data set with angiogenesis is given as “inhibits angiogenesis”.
